How the values were obtained:
Assay in all cases: relative viability (nuclei count vs DMSO), 5 days (fraction); higher = more cells survive
KIN001-266 + Lapatinib = compound: CCN1CCC(CC1)N2C=C(N=N2)CNC3=CC4=C(C(=CN=C4C(=C3)Cl)C#N)NC5=CC(=C(C=C5)F)Cl [KIN001-266] + CS(=O)(=O)CCNCc1ccc(-c2ccc3ncnc(Nc4ccc(OCc5cccc(F)c5)c(Cl)c4)c3c2)o1 [Lapatinib] (partner 2 µM)
Procedure, shortened: (§1)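 Lung cancer cell lines in 1536-well plates were dosed by pin tool the day after seeding, either with one drug alone or with a fixed anchor-drug dose plus five library-drug doses (not always all listed) in √10 steps. After 5 days, cells were fixed and their nuclei stained in one step (final 0.05% Triton X-100, 1% formaldehyde, 1 ug/ml Hoechst), then counted on 4× images. Relative viability is the nuclei count in treated wells divided by that in vehicle wells. Values are medians of duplicate plates.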

KIN001-266 + Crizotinib = compound: CCN1CCC(CC1)N2C=C(N=N2)CNC3=CC4=C(C(=CN=C4C(=C3)Cl)C#N)NC5=CC(=C(C=C5)F)Cl [KIN001-266] + C[C@@H](Oc1cc(-c2cnn(C3CCNCC3)c2)cnc1N)c1c(Cl)ccc(F)c1Cl [Crizotinib] (partner 1 µM)
Procedure, shortened: as §1

KIN001-266 + Dasatinib = compound: CCN1CCC(CC1)N2C=C(N=N2)CNC3=CC4=C(C(=CN=C4C(=C3)Cl)C#N)NC5=CC(=C(C=C5)F)Cl [KIN001-266] + Cc1nc(Nc2ncc(C(=O)Nc3c(C)cccc3Cl)s2)cc(N2CCN(CCO)CC2)n1 [Dasatinib] (partner 0.075 µM)
Procedure, shortened: as §1

KIN001-266 + Pemetrexed = compound: CCN1CCC(CC1)N2C=C(N=N2)CNC3=CC4=C(C(=CN=C4C(=C3)Cl)C#N)NC5=CC(=C(C=C5)F)Cl [KIN001-266] + Nc1nc2[nH]cc(CCc3ccc(C(=O)N[C@@H](CCC(=O)O)C(=O)O)cc3)c2c(=O)[nH]1 [Pemetrexed] (partner 0.2 µM)
Procedure, shortened: as §1

Cell Line	relative viability (KIN001-266 + Lapatinib; first compound 0.08 µM)	relative viability (KIN001-266 + Lapatinib; first compound 0.253 µM)	relative viability (KIN001-266 + Lapatinib; first compound 0.8 µM)	relative viability (KIN001-266 + Lapatinib; first compound 2.53 µM)	relative viability (KIN001-266 + Lapatinib; first compound 8 µM)	relative viability (KIN001-266 + Crizotinib; first compound 0.08 µM)	relative viability (KIN001-266 + Crizotinib; first compound 0.253 µM)	relative viability (KIN001-266 + Crizotinib; first compound 0.8 µM)	relative viability (KIN001-266 + Crizotinib; first compound 2.53 µM)	relative viability (KIN001-266 + Crizotinib; first compound 8 µM)	relative viability (KIN001-266 + Dasatinib; first compound 0.08 µM)	relative viability (KIN001-266 + Dasatinib; first compound 0.253 µM)	relative viability (KIN001-266 + Dasatinib; first compound 0.8 µM)	relative viability (KIN001-266 + Dasatinib; first compound 2.53 µM)	relative viability (KIN001-266 + Dasatinib; first compound 8 µM)	relative viability (KIN001-266 + Pemetrexed; first compound 0.08 µM)	relative viability (KIN001-266 + Pemetrexed; first compound 0.253 µM)	relative viability (KIN001-266 + Pemetrexed; first compound 0.8 µM)	relative viability (KIN001-266 + Pemetrexed; first compound 2.53 µM)	relative viability (KIN001-266 + Pemetrexed; first compound 8 µM)
NCI-H358	0.493	0.497	0.483	0.407	0.372	0.537	0.794	0.656	0.454	0.268	0.148	0.171	0.173	0.137	0.116	0.187	0.163	0.178	0.158	0.146
LC-2-ad	0.999	0.847	1.02	0.972	0.929	0.43	0.546	0.377	0.447	0.429	0.661	0.533	0.626	0.8	0.632	0.288	0.301	0.272	0.271	0.275
HCC-15	0.779	0.851	0.731	0.734	0.646	0.778	0.821	0.738	0.626	0.565	0.683	0.592	0.566	0.596	0.448	0.234	0.222	0.221	0.206	0.225
NCI-H2405	1.08	1.23	1.09	1.16	0.936	0.854	0.89	0.811	0.852	0.565	0.207	0.241	0.233	0.223	0.202	1.08	1.04	1.2	0.84	0.932
LXF-289	0.901	0.898	0.862	0.865	0.96	0.819	0.801	0.77	0.826	0.76	0.24	0.193	0.232	0.261	0.203	0.839	0.861	0.855	0.771	1.01
CAL-12T	0.826	0.706		0.679	0.626	0.562	0.565	0.693	0.589	0.686	0.444	0.49	0.345	0.52	0.278	1.25	1.1	1.15	1.2	1.15
COR-L23	0.797	0.894	0.998	0.904	0.983	0.751	0.832	0.642	0.561	0.416	0.523	0.495	0.476	0.484	0.372	0.204	0.219	0.206	0.191	0.209
NCI-H1755	0.987	1.04	1.06	0.996	0.987	0.942	0.798	0.836	0.826	0.718	0.415	0.387	0.471	0.478	0.451	0.394	0.459	0.334	0.407	0.433

From the supplement of paper PMC10307832
